{"source": "the supplement of paper PMC10307832", "assay_in_all_cases": "relative viability (nuclei count vs DMSO), 5 days (fraction); higher = more cells survive", "key": {"NCI-H23": {"tested_on": "NCI-H23", "summary_of_the_method": "(§1)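 Relative viability equals treated-well nuclei counts divided by vehicle-well nuclei counts. Counts came from 4× images of lung cancer cell lines grown in 1536-well plates for 5 days after pin-tool dosing on the day after seeding. Dosing used one drug alone or a fixed anchor-drug dose plus five library-drug doses (not always all listed) in √10 steps, and values are medians of duplicate plates.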"}, "SK-LU-1": {"tested_on": "SK-LU-1", "summary_of_the_method": "as §1"}, "LK-2": {"tested_on": "LK-2", "summary_of_the_method": "as §1"}, "LU99A": {"tested_on": "LU99A", "summary_of_the_method": "as §1"}, "EKVX": {"tested_on": "EKVX", "summary_of_the_method": "as §1"}, "NCI-H322M": {"tested_on": "NCI-H322M", "summary_of_the_method": "as §1"}, "RERF-LC-KJ": {"tested_on": "RERF-LC-KJ", "summary_of_the_method": "as §1"}, "NCI-H1666": {"tested_on": "NCI-H1666", "summary_of_the_method": "as §1"}, "EMC-BAC-2": {"tested_on": "EMC-BAC-2", "summary_of_the_method": "as §1"}, "NCI-H1975": {"tested_on": "NCI-H1975", "summary_of_the_method": "as §1"}, "EPLC-272H": {"tested_on": "EPLC-272H", "summary_of_the_method": "as §1"}, "HCC-827": {"tested_on": "HCC-827", "summary_of_the_method": "as §1"}, "SW 1573": {"tested_on": "SW 1573", "summary_of_the_method": "as §1"}, "HCC-78": {"tested_on": "HCC-78", "summary_of_the_method": "as §1"}, "ChaGo-K-1": {"tested_on": "ChaGo-K-1", "summary_of_the_method": "as §1"}, "NCI-H2126": {"tested_on": "NCI-H2126", "summary_of_the_method": "as §1"}, "LXF-289": {"tested_on": "LXF-289", "summary_of_the_method": "as §1"}, "PC-14": {"tested_on": "PC-14", "summary_of_the_method": "as §1"}, "NCI-H2405": {"tested_on": "NCI-H2405", "summary_of_the_method": "as §1"}}, "data": [{"smiles": "O=c1cc(N2CCOCC2)oc2c(-c3cccc4c3sc3ccccc34)cccc12", "note": "+ CC1(C)CCC(c2ccc(Cl)cc2)=C(CN2CCN(c3ccc(C(=O)NS(=O)(=O)c4ccc(N[C@H](CCN5CCOCC5)CSc5ccccc5)c(S(=O)(=O)C(F)(F)F)c4)cc3)CC2)C1 [Navitoclax] (partner 0.5 µM)", "values": [{"measurement": "relative viability", "setting": "NCI-H23; first compound 0.01 µM", "result": 0.981}, {"measurement": "relative viability", "setting": "NCI-H23; first compound 0.03162 µM", "result": 0.846}, {"measurement": "relative viability", "setting": "NCI-H23; first compound 0.3162 µM", "result": 0.832}, {"measurement": "relative viability", "setting": "NCI-H23; first compound 1 µM", "result": 0.777}, {"measurement": "relative viability", "setting": "SK-LU-1; first compound 0.03162 µM", "result": 0.954}, {"measurement": "relative viability", "setting": "SK-LU-1; first compound 0.1 µM", "result": 1.1}, {"measurement": "relative viability", "setting": "SK-LU-1; first compound 0.3162 µM", "result": 1.18}, {"measurement": "relative viability", "setting": "SK-LU-1; first compound 1 µM", "result": 0.77}, {"measurement": "relative viability", "setting": "LK-2; first compound 0.01 µM", "result": 0.882}, {"measurement": "relative viability", "setting": "LK-2; first compound 0.03162 µM", "result": 0.886}, {"measurement": "relative viability", "setting": "LK-2; first compound 0.1 µM", "result": 0.896}, {"measurement": "relative viability", "setting": "LK-2; first compound 0.3162 µM", "result": 0.874}, {"measurement": "relative viability", "setting": "LK-2; first compound 1 µM", "result": 1.07}, {"measurement": "relative viability", "setting": "LU99A; first compound 0.01 µM", "result": 0.887}, {"measurement": "relative viability", "setting": "LU99A; first compound 0.03162 µM", "result": 0.955}, {"measurement": "relative viability", "setting": "LU99A; first compound 0.1 µM", "result": 0.884}, {"measurement": "relative viability", "setting": "LU99A; first compound 0.3162 µM", "result": 0.773}, {"measurement": "relative viability", "setting": "LU99A; first compound 1 µM", "result": 0.898}, {"measurement": "relative viability", "setting": "EKVX; first compound 0.01 µM", "result": 1.02}, {"measurement": "relative viability", "setting": "EKVX; first compound 0.03162 µM", "result": 0.903}, {"measurement": "relative viability", "setting": "EKVX; first compound 0.1 µM", "result": 0.991}, {"measurement": "relative viability", "setting": "EKVX; first compound 0.3162 µM", "result": 0.956}, {"measurement": "relative viability", "setting": "EKVX; first compound 1 µM", "result": 0.871}, {"measurement": "relative viability", "setting": "NCI-H322M; first compound 0.01 µM", "result": 1.34}, {"measurement": "relative viability", "setting": "NCI-H322M; first compound 0.03162 µM", "result": 1.17}, {"measurement": "relative viability", "setting": "NCI-H322M; first compound 0.3162 µM", "result": 1.19}, {"measurement": "relative viability", "setting": "NCI-H322M; first compound 1 µM", "result": 1.12}, {"measurement": "relative viability", "setting": "RERF-LC-KJ; first compound 0.01 µM", "result": 0.926}, {"measurement": "relative viability", "setting": "RERF-LC-KJ; first compound 0.03162 µM", "result": 1.2}, {"measurement": "relative viability", "setting": "RERF-LC-KJ; first compound 0.1 µM", "result": 0.98}, {"measurement": "relative viability", "setting": "RERF-LC-KJ; first compound 0.3162 µM", "result": 0.85}, {"measurement": "relative viability", "setting": "RERF-LC-KJ; first compound 1 µM", "result": 0.974}, {"measurement": "relative viability", "setting": "NCI-H1666; first compound 0.01 µM", "result": 0.941}, {"measurement": "relative viability", "setting": "NCI-H1666; first compound 0.03162 µM", "result": 0.899}, {"measurement": "relative viability", "setting": "NCI-H1666; first compound 0.1 µM", "result": 0.819}, {"measurement": "relative viability", "setting": "NCI-H1666; first compound 0.3162 µM", "result": 0.798}, {"measurement": "relative viability", "setting": "NCI-H1666; first compound 1 µM", "result": 0.895}, {"measurement": "relative viability", "setting": "EMC-BAC-2; first compound 0.01 µM", "result": 1.09}, {"measurement": "relative viability", "setting": "EMC-BAC-2; first compound 0.03162 µM", "result": 1.13}, {"measurement": "relative viability", "setting": "EMC-BAC-2; first compound 0.1 µM", "result": 1.18}, {"measurement": "relative viability", "setting": "EMC-BAC-2; first compound 0.3162 µM", "result": 1.16}, {"measurement": "relative viability", "setting": "EMC-BAC-2; first compound 1 µM", "result": 1.17}, {"measurement": "relative viability", "setting": "NCI-H1975; first compound 0.01 µM", "result": 1.02}, {"measurement": "relative viability", "setting": "NCI-H1975; first compound 0.03162 µM", "result": 1.13}, {"measurement": "relative viability", "setting": "NCI-H1975; first compound 0.1 µM", "result": 1.1}, {"measurement": "relative viability", "setting": "NCI-H1975; first compound 0.3162 µM", "result": 0.985}, {"measurement": "relative viability", "setting": "NCI-H1975; first compound 1 µM", "result": 0.994}, {"measurement": "relative viability", "setting": "EPLC-272H; first compound 0.01 µM", "result": 1.11}, {"measurement": "relative viability", "setting": "EPLC-272H; first compound 0.03162 µM", "result": 1.05}, {"measurement": "relative viability", "setting": "EPLC-272H; first compound 0.3162 µM", "result": 1.04}, {"measurement": "relative viability", "setting": "EPLC-272H; first compound 1 µM", "result": 1.08}, {"measurement": "relative viability", "setting": "HCC-827; first compound 0.01 µM", "result": 1.02}, {"measurement": "relative viability", "setting": "HCC-827; first compound 0.03162 µM", "result": 0.996}, {"measurement": "relative viability", "setting": "HCC-827; first compound 0.1 µM", "result": 1.01}, {"measurement": "relative viability", "setting": "HCC-827; first compound 0.3162 µM", "result": 1.07}, {"measurement": "relative viability", "setting": "HCC-827; first compound 1 µM", "result": 1.02}, {"measurement": "relative viability", "setting": "SW 1573; first compound 0.01 µM", "result": 1.04}, {"measurement": "relative viability", "setting": "SW 1573; first compound 0.03162 µM", "result": 1}, {"measurement": "relative viability", "setting": "SW 1573; first compound 0.1 µM", "result": 1.15}, {"measurement": "relative viability", "setting": "SW 1573; first compound 0.3162 µM", "result": 1.06}, {"measurement": "relative viability", "setting": "SW 1573; first compound 1 µM", "result": 0.832}, {"measurement": "relative viability", "setting": "HCC-78; first compound 0.01 µM", "result": 0.742}, {"measurement": "relative viability", "setting": "HCC-78; first compound 0.03162 µM", "result": 0.831}, {"measurement": "relative viability", "setting": "HCC-78; first compound 0.1 µM", "result": 0.756}, {"measurement": "relative viability", "setting": "HCC-78; first compound 0.3162 µM", "result": 0.755}, {"measurement": "relative viability", "setting": "HCC-78; first compound 1 µM", "result": 0.843}, {"measurement": "relative viability", "setting": "ChaGo-K-1; first compound 0.01 µM", "result": 1.04}, {"measurement": "relative viability", "setting": "ChaGo-K-1; first compound 0.03162 µM", "result": 0.927}, {"measurement": "relative viability", "setting": "ChaGo-K-1; first compound 0.1 µM", "result": 0.729}, {"measurement": "relative viability", "setting": "ChaGo-K-1; first compound 0.3162 µM", "result": 1.06}, {"measurement": "relative viability", "setting": "ChaGo-K-1; first compound 1 µM", "result": 0.971}, {"measurement": "relative viability", "setting": "NCI-H2126; first compound 0.01 µM", "result": 0.845}, {"measurement": "relative viability", "setting": "NCI-H2126; first compound 0.03162 µM", "result": 0.839}, {"measurement": "relative viability", "setting": "NCI-H2126; first compound 0.1 µM", "result": 0.868}, {"measurement": "relative viability", "setting": "NCI-H2126; first compound 0.3162 µM", "result": 0.889}, {"measurement": "relative viability", "setting": "NCI-H2126; first compound 1 µM", "result": 0.794}, {"measurement": "relative viability", "setting": "LXF-289; first compound 0.01 µM", "result": 0.924}, {"measurement": "relative viability", "setting": "LXF-289; first compound 0.03162 µM", "result": 0.937}, {"measurement": "relative viability", "setting": "LXF-289; first compound 0.1 µM", "result": 0.938}, {"measurement": "relative viability", "setting": "LXF-289; first compound 0.3162 µM", "result": 0.865}, {"measurement": "relative viability", "setting": "LXF-289; first compound 1 µM", "result": 0.916}, {"measurement": "relative viability", "setting": "PC-14; first compound 0.01 µM", "result": 1.09}, {"measurement": "relative viability", "setting": "PC-14; first compound 0.03162 µM", "result": 0.95}, {"measurement": "relative viability", "setting": "PC-14; first compound 0.1 µM", "result": 1.08}, {"measurement": "relative viability", "setting": "PC-14; first compound 0.3162 µM", "result": 1.07}, {"measurement": "relative viability", "setting": "PC-14; first compound 1 µM", "result": 1.03}, {"measurement": "relative viability", "setting": "NCI-H2405; first compound 0.01 µM", "result": 0.837}, {"measurement": "relative viability", "setting": "NCI-H2405; first compound 0.03162 µM", "result": 1.01}, {"measurement": "relative viability", "setting": "NCI-H2405; first compound 0.1 µM", "result": 0.838}, {"measurement": "relative viability", "setting": "NCI-H2405; first compound 0.3162 µM", "result": 0.811}, {"measurement": "relative viability", "setting": "NCI-H2405; first compound 1 µM", "result": 0.95}]}]}
